Point of comparison: `O=C(Nc1nc2cc(O)ccc2[nH]1)NC1CC1`, melting point 320 °C. Against it:
- CC12CCC(C(=NO)C1=NN)C(C)(C)O2 (stereo not given) — lower, 138 to 142 °C
- Cc1cnc(C)n2c1c(CCN1CCC(NC(=O)c3ccccc3)CC1)c1ccccc12 — lower, 233 to 234 °C
- Nc1c(-c2cc(Cl)ccc2O)nnn1-c1ccc(Cl)cc1Cl — lower, 131 to 136 °C
- O=[N+]([O-])c1ccc2c(C3=CCC4(CC3)OCCO4)c[nH]c2c1 — lower, 259 to 261 °C
- CCOC(=O)/C=C/c1cn(Cc2ccc(OCc3nc(-c4ccccc4)oc3C)cc2)cc1-c1ccccc1 — lower, 120 to 121 °C
- N#CCc1cc(I)cc(Cc2nc3c(F)c(F)cc(F)c3s2)c1 — lower, 127 to 130 °C
- CC(C)Cc1cc(C(N)=O)nn1C — lower, 118 to 120 °C
- c1ccc(-c2nc(-c3ccc(OCCCn4ccnc4)cc3)no2)cc1 — lower, 132 to 133 °C
- CCn1nc(OCC(=O)C(C)(C)C)c(-c2ccc(S(C)(=O)=O)cc2)c1-c1ccc(F)cc1 — lower, 63 to 66 °C
- O=C1c2cc([N+](=O)[O-])cc3c(N4CCCC4)c(Cl)cc(c23)C(=O)N1O — lower, 209 to 210 °C
- COC(=O)c1ccc(Cn2nnc3ccc(NC(=O)OC4CCCC4)cc32)c(OC)c1 — lower, 142 to 143 °C
- CNS(=O)(=O)CC(=O)C=C(C)N — lower, 158 to 162 °C
- CNc1ccc(Cl)c(C(=O)Nc2cccc3c4c(oc23)CCCC4)c1Cl — lower, 160 to 162 °C
- Cc1cccc(-c2nc3ccc(N(C)C)nn3c2-c2ccnc(NC3CCCCC3)c2)c1 — lower, 191 to 192 °C
- CCCNC(=O)n1nc(Oc2ncc(C(F)(F)F)cc2Cl)c(Cl)c1C — lower, 54 to 56 °C
- CC(C)n1nc(-c2sc(NC(=O)N3CCOCC3)nc2-c2ccccc2)ccc1=O — lower, 231 to 232 °C
- CCOC(=O)C1=C(C)N(C(C)=O)C(c2csc(C)n2)=NC1c1ccc(Cl)cc1 (stereo not given) — lower, 169 to 171 °C
- O=C(CCCNC(=O)C(=O)c1cn2c3c(cccc13)CCC2)NO — lower, 95 to 97 °C
- O=C(O)c1cn(-c2ccc(F)cc2)c2cc(F)c(F)cc2c1=O — lower, 252 to 256 °C
- O=c1[nH]c(=O)n(C2CC(F)C(CO)O2)cc1CO (stereo not given) — lower, 184 °C
- COc1ccc(C(=O)Cc2cc(OC)ccc2OC)cc1 — lower, 108 to 111 °C
- CSc1ncc(S(N)(=O)=O)c(Nc2cccc(C)c2)n1 — lower, 184 °C
- FC(F)(F)c1cc(N(Cc2ccsc2)Cc2ccccn2)cc(C(F)(F)F)c1Br — lower, 58 to 59 °C
- CC(C)Cc1nn(C)c(=O)c2cc(Cc3cccnc3)sc12 — lower, 118 to 119 °C
- CCCCOc1cc(/C=C(\OCC)C(=O)O)ccc1OCCc1ccc(N(C)S(C)(=O)=O)cc1 — lower, 112 °C
- CCC(=O)n1ccc(-c2ccc(C(=O)N3Cc4cccn4Cc4ccccc43)cc2)n1 — lower, 150 to 152 °C
- CCCc1c(OCCC2Cc3cc(CC(=O)OC)ccc3O2)ccc(C(C)=O)c1O (stereo not given) — lower, 59 to 60 °C
- Nc1nc2c(s1)CCN(CCC=Cc1ccccc1)CC2 — lower, 157 to 158 °C
- CCOC(=O)CCCn1c(=O)[nH]c2ccccc21 — lower, 88 °C
- CN(CCO)c1nc2ccccc2o1 — lower, 62 to 63 °C
- COc1ccc2c(c1OC)CC[C@H]1[C@H]2CCCN1CCc1ccccc1 (relative stereo) — lower, 110 to 111 °C
- COC(=O)C1=CNC=Cc2c1n(C)c1ccccc21 — lower, 131 to 132 °C
- CSc1c(Cl)ccc(C(=O)O)c1SC — lower, 130 to 131 °C
- O=C1CCC2CCCC(CCC(=O)OCc3ccccc3)C2N1 (stereo not given) — lower, 101 to 102 °C
- CS(=O)(=O)c1ccc(-c2[nH]c3ccccc3c2-c2ccc(Br)cc2)cc1 — lower, 225 to 226 °C
- CC#CCOc1ccc(SC(C(=O)NO)c2ccc(OC)cc2)cc1 (stereo not given) — lower, 156 °C
- O=C(O)C1Oc2cc(Cl)c(S(=O)(=O)c3cccc(F)c3)cc2O1 (stereo not given) — lower, 161 to 163 °C
- CCOC(Cc1c(N(C(C)=O)C(C)=O)nc(NC(C)=O)[nH]c1=O)OCC — lower, 128 to 130 °C
- CCC(CO)Nc1cc(C)nc(Oc2c(C)cc(Cl)cc2C)c1CO (stereo not given) — lower, 133 to 135 °C
- ClCc1cccc(-c2nnn[nH]2)c1 — lower, 152 to 154 °C
- Cc1cc(-n2cnnc2)ccc1[N+](=O)[O-] — lower, 208 to 210 °C
- CCCCOc1ccc(C=C(C#N)S(C)(=O)=O)cc1 — lower, 96.5 to 97 °C
- CS(=O)(=O)N1C(=O)C2(COc3cc4c(cc32)OCO4)c2ccccc21 (stereo not given) — lower, 215 to 217 °C
- CCCc1c(C(=O)C(C)C)c2ccc(C(N)=O)cc2n1Cc1ccccc1NC(=O)NC — lower, 222 to 223 °C
- Nc1c2c(nc3ccccc13)CC(O)CC2O (stereo not given) — lower, 158 to 162 °C
- Cc1nc2c(N)nc3ccccc3c2n1CCCS(C)(=O)=O — lower, 225 to 228 °C
- CN[C@@H]1Cc2ccccc2[C@H]1Nc1ccccc1CO (relative stereo) — lower, 113 to 114 °C
- O=C1c2ccccc2C(=O)C2(CC3CCCC(C(F)(F)F)C3)OC12 (stereo not given) — lower, 85 °C
- N#Cc1ccc(OCCCN2CCC(C(O)(c3ccc(F)cc3)c3ccc(F)cc3)CC2)cc1 — lower, 107 to 108 °C
- N#Cc1ccc(N2CCCN(c3ccnc4sc(C(N)=O)c(N)c34)CC2)cc1 — lower, 151 to 153 °C
- O=C(c1ccn(S(=O)(=O)c2ccccc2)c1)c1ccc(Cl)cc1Cl — lower, 122 °C
- C#Cc1cccc(C2=CC(=O)NC2=O)c1 — lower, 129 to 131 °C
- Cc1ccc(C(=O)CCCC(C)C(=O)O)cc1 (stereo not given) — lower, 50 to 50.5 °C
- COc1cc(OC)c(C=O)cn1 — lower, 97 to 98 °C
- CC1(C)C(C=CC(=O)OCC(F)(F)F)C1C(=O)OC(C#N)c1ccc(F)c(Oc2ccccc2)c1 (stereo not given) — lower, 56 °C
- CC(C)CC(=O)Nc1c(C(=O)c2cccc(Cl)c2)[nH]c2cc(Cl)ccc12 — lower, 185 to 186 °C
- CC1(Cc2ccc3c(c2)OCCO3)CN(C(c2ccccc2)c2ccccc2)CCN1 (stereo not given) — lower, 144 °C
- CCCc1nn(-c2ccc(C(F)(F)F)cn2)cc1CCCOc1cccc(OC(C)(C)C(=O)O)c1 — lower, 99 to 100 °C
- O=C1N=C(N2CCOCC2)SC1=Cc1cccc(-c2ccc(O)c(F)c2)c1 — lower, 233 to 235 °C
- CCOC(=O)CCCC(=O)CNC(=O)c1csc(NC(=O)NCc2ccccc2)n1 — lower, 135 to 136 °C
- COc1ccc(C2(C#N)CCC(=O)CC2)c2nc(C(C)C)oc12 — lower, 118 °C
- C=CCn1nc(C)c(CC(=O)O)c1C — lower, 139 to 140 °C
- Cc1cc2nncn2nc1-c1cccc(N)c1 — lower, 182 to 186 °C
- O=S(=O)(c1ccccc1)N1CCNc2ncc(I)cc21 — lower, 145 to 146 °C
- CN1CCC2(CC1)NC(=S)N(c1ccc(C#N)c(C(F)(F)F)c1)C2=O — lower, 229 to 230 °C
- Nc1cccc(-c2ccc(CCN3CCC(N)CC3)cc2)n1 — lower, 190 to 195 °C
- COC(=O)C=Cc1ccc(OCc2nc(-c3ccccc3)c(-c3ccccc3)o2)cc1 — lower, 159 to 161 °C
- CCNc1ccc(NC(C)=O)c(C)c1 — lower, 102 to 103 °C
- O=C(Nc1n[nH]c(=S)s1)NC(Cc1ccccc1)C(=O)NCc1cccc2ccccc12 (stereo not given) — lower, 234 to 235 °C
- C[C@H](c1ccccc1)n1c(=O)c2c(N3CCNCC3)cc(Cl)cc2n(Cc2ccccc2)c1=O — lower, 91 to 96 °C
- CC(C)(C)OC(=O)N1CCN(c2[nH]nc(-c3ccc(Cl)cc3)c2-c2ccncc2)CC1 — lower, 204 to 205 °C
- Cc1ccc2cccc(OCc3c(Cl)ccc(S(=O)(=O)NCc4ccccc4)c3Cl)c2n1 — lower, 140 to 142 °C
- Cc1ccc(-c2ccc(OC3SCC(O)C(O)C3O)cn2)cc1 (stereo not given) — lower, 191 °C
- N#Cc1c[nH]cc1-c1cccc(C(F)(F)F)c1Cl — lower, 82 °C
- COc1ccc(S(=O)(=O)Cl)cc1N1CCN(C(=O)C(F)(F)F)CC1 — lower, 125 to 127 °C
- CCCc1c(OCCCOc2ccc3c(c2CCC)OC(C)(CCC(=O)N(C)CC(=O)OCC)CC3=O)ccc(C(C)=O)c1O (stereo not given) — lower, 101 to 102 °C
- C[C@H]1CCCC(C)(C)[C@@H]1[C@H](O)c1ccc(C(F)(F)F)c(F)c1 — lower, 71 to 73 °C
- COC(c1ccc(NC(=O)c2c(C)nn(C)c2C)c(C(C)CC(C)C)c1)(C(F)(F)F)C(F)(F)F (stereo not given) — lower, 94 to 96 °C
- COc1cccc(Oc2nccc(-c3c(-c4ccc(F)cc4)ncn3C3CCNCC3)n2)c1 — lower, 117 to 118 °C
- NS(=O)(=O)c1cccc(-c2cccc(-c3nc(-c4ccc(C(F)(F)F)c(F)c4)cc(C(F)(F)F)n3)c2)c1 — lower, 228 °C
- Cc1ccn2nc(S(=O)(=O)Nc3c(Cl)cccc3Cl)nc2n1 — lower, 126 to 129 °C
- COc1cc2c(cc1-c1cnccn1)-c1c(-c3cncs3)c3c(n1CC2)C(=O)N(C(C)(C)C)CCCOC3 — lower, 235 to 236 °C
- CN(C)N=Cc1cc2c(cn1)[nH]c1ccccc12 — lower, 203 to 206 °C
- Cc1ccc(-c2ccc3c(c2)C=C(C(CN(C)C2CCOCC2)Oc2ccccc2)CCO3)cc1 (stereo not given) — lower, 135 to 136 °C
- N#Cc1cc(-c2ccncn2)c[nH]c1=O — not separable, > 250 °C
- Cc1nn(-c2c(Cl)cc(S(=O)(=O)C(F)(F)F)cc2Cl)nc1-c1nc(C#N)c(C#N)[nH]1 — lower, 244 to 245 °C
- CCCC(=O)Nc1c(C(=O)c2cccc(C)c2)[nH]c2cc(Cl)ccc12 — lower, 127 to 130 °C
- O=C1c2ccccc2-c2c1c1ccccc1c(=O)n2C1CC1 — lower, 206 to 208 °C
- O=C1N(Cc2ccncc2)Cc2cccnc2N1c1cccc([N+](=O)[O-])c1 — lower, 169 to 170 °C
- O=C(Nc1c(C(=O)c2ccccc2)[nH]c2cc(Cl)ccc12)c1ccccc1Cl — lower, 229 to 234 °C
- CCc1cc(C(=O)c2ccccc2Cl)c(-n2c(CNC(=O)c3cc4ccccc4[nH]3)nnc2C23CC4CC(CC(C4)C2)C3)s1 — lower, 283 to 286 °C
- Nc1cc(=O)n(Cc2ccc(Cl)c(C(F)(F)F)c2)[nH]1 — lower, 132 °C
- ON=c1ccccc2cnccc12 — lower, 164 to 167 °C
- C[C@H]1[C@H](N2C(=O)c3ccccc3C2=O)C(=O)N1O (relative stereo) — lower, 94 to 96 °C
- Cc1cc2ncc(Cl)nc2cc1C — lower, 103 °C
- O=C(Cc1ccc(F)cc1)NC1CCN(Cc2ccc(Br)cc2)CC1 — lower, 144 °C
- N#Cc1cccc2c(-c3ccccc3)coc12 — lower, 143 to 145 °C
- O=c1[nH]c(NCCCOc2cccc(CN3CCCCC3)c2)ncc1[N+](=O)[O-] — lower, 161 to 164 °C
- CCN(C)C1=NS(=O)(=O)c2cccc(OC)c21 — lower, 154 to 156 °C
